“Also recorded” adds a separate entry of the source. Structures can show the parent of a compound that is named as a salt.
Tests used:
[1] = target: T1, Dopamine D4 receptor (D4R) (Homo sapiens, UniProt P21917); test: BRET assay for G protein activation in live cells, D4R-Go; format: cell-based; conditions: for agonistic activity on D4R (BRET signal): HEK293T/17 cells, BRM 25 μM, MTP 100 μM, DOX 50 μM, TAM 100 μM
T1 construct: host or cells: HEK293T/17
T1 sequence (P21917 1-419): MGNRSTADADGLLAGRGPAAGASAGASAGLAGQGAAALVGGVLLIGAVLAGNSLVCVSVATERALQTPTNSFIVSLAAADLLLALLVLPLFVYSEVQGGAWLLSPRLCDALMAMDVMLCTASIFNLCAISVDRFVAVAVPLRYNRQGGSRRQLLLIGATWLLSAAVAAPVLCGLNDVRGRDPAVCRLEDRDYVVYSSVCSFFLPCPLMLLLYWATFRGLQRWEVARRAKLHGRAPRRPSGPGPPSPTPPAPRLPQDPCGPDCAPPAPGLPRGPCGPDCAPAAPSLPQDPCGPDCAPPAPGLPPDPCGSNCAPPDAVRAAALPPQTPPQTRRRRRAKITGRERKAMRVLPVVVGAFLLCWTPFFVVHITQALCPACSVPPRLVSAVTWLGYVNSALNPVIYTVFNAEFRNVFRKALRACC
Source text: (§1) FIGS. 35(A-C) illustrate characterizing the activity of BRM, MTP, DOX, and TAM on dopamine and adrenaline receptors (A) Schematic representation of the BRET assay used to evaluate actions of drugs on selected GPCRs. […] The free Venus-Gβγ then interacts with the Gβγ-effector mimetic masGRK3ct-Nluc to produce the BRET signal. GDP, guanosine diphosphate; GRK, G protein-coupled receptor kinase; Nluc, nanoluciferase. (B) Left: Representative BRET signal traces recorded upon activation of D4R with indicated drugs in cells expressing Gαo and Venus-Gβγ, illustrating the agonism assay. Right: Representative traces of D2R responses to 1 μM dopamine in the absence (control) or presence of indicated drugs, illustrating antagonism assay. Note that, in the antagonism assay shown, the black trace overlaps with the red trace and therefore is not visible. (C) Top: Quantification of agonistic activity of ligands on D2R, D4R, D1R, and ADRA1A. D2R-GO, D4R-GO, D1R-Gs, and ADRA1A-Gq signaling were reconstituted in HEK293T/17 cells by transient transfection separately. Maximum amplitudes induced by dopamine (DA; 100 μM), noradrenaline (NA; 100 μM), BRM (25 μM), MTP (100 μM), DOX (50 μM), and TAM (100 μM) were plotted as bar graphs. […] The activity is plotted as percent inhibition. Data are means±SD. Results are representative of two independent experiments each performed with 12 replicates.
(§2) Dopamine D1, dopamine D4, and α1A-adrenergic receptors were purchased from cDNA Resource Center (Bloomsburg University, Bloomsburg, Pa.). Plasmid encoding the Flag-tagged, long isoform of the D2 dopamine receptor was a gift from A. Kovoor (University of Rhode Island). pCMV5 plasmids encoding GαoA were gifts from H. Itoh (Nara Institute of Science and Technology, Japan). Plasmids encoding Venus 156-239-Gβ1 and Venus 1-155-Gγ2 were gifts from N. Lambert (Georgia Regents University). Plasmids encoding RGS9-2, Gβ5S, R7BP, and masGRK3ct-Nluc were previously described.
(§3) BRET experiments were performed as previously reported with slight modifications. […] BRET measurements were performed using a microplate reader (POLARstar Omega, BMG Labtech) equipped with two emission photomultiplier tubes. […] The BRET signal is determined by calculating the ratio of the light emitted by Gβ1γ2-Venus (535 nm) over the light emitted by masGRK3ct-Nluc (475 nm). The average baseline value recorded before agonist stimulation was subtracted from BRET signal values, and the resulting difference (ABRET ratio) was obtained.
(§4) We used a real-time kinetic assay in which G protein activation by GPCRs is quantified by monitoring changes in the bioluminescence resonance energy transfer (BRET) signal between Venus-tagged Gβγ and its luciferase-tagged reporter in living cells (FIG. 35A). […]

Abca4−/−Rdh8−/− mice = test: Bright light-induced retinal degeneration in Abca4−/−Rdh8−/− mice, OCT imaging of retinal structure; format: in vivo, mouse; conditions: for Percent of mice with: subeffective doses BRM 0.1, MTP 1, TAM 0.05, DOX 1 mg/kg bw, OCT 7 days; for retinal / photoreceptor morphology by OCT imaging: pretreatment before light 10,000 lux 30 min, OCT 7 days after light exposure; for retinal protection at full individual dose: BRM 1, MTP 10, TAM 2.5 mg/kg bw individually; for light-exposed mice with complete retinal protection: lower doses BRM 0.1, MTP 1, TAM 0.05 mg/kg bw, alone or all three combined
[2] = target: T2, α1A-adrenergic receptor (ADRA1A) (Homo sapiens, UniProt P35348); test: BRET assay for G protein activation in live cells, ADRA1A-Gq; format: cell-based; conditions: for antagonistic activity on ADRA1A (inhibition of BRET signal): preincubation with ligand, then 1 μM noradrenaline
T2 construct: host or cells: HEK293T/17
T2 sequence (P35348 1-466): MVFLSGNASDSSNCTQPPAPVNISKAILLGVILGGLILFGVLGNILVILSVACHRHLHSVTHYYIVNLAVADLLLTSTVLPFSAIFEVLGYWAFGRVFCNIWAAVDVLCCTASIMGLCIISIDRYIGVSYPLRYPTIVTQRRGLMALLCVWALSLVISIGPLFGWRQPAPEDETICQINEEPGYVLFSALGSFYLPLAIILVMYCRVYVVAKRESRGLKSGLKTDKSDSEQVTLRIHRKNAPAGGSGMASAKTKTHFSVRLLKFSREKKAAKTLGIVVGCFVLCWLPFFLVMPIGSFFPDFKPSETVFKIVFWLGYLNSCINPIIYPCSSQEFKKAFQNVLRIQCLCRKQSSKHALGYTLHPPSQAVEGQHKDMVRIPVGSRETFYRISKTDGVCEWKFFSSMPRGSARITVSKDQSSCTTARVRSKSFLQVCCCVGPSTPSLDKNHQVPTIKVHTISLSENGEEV
Source text: as §1, §2, §3, §4

[3] = Table 14 (complete protection, ONL ≥50 μm)
[4] = Table 14 (no protection, ONL ≤20 μm)

| SMILES | agonistic activity on D4R (BRET signal) [1] | Percent of mice with (Abca4−/−Rdh8−/− mice; [3]) | Percent of mice with (Abca4−/−Rdh8−/− mice; [4]) | retinal / photoreceptor morphology by OCT imaging (Abca4−/−Rdh8−/− mice; listed as DOX) | half maximal effective (protective) dose (Abca4−/−Rdh8−/− mice; protection from bright light-induced degeneration, dose-response, FIG. 25A/B) [mg/kg] | antagonistic activity on ADRA1A (inhibition of BRET signal) [2] | antagonistic activity on D4R (inhibition of BRET signal) ([1]; preincubation with ligand, then 1 μM dopamine) | retinal protection at full individual dose (Abca4−/−Rdh8−/− mice) | light-exposed mice with complete retinal protection (Abca4−/−Rdh8−/− mice) [%] | retinal / photoreceptor morphology by OCT imaging (Abca4−/−Rdh8−/− mice) | agonistic activity on ADRA1A (BRET signal) ([2]; HEK293T/17 cells, BRM 25 μM, MTP 100 μM, DOX 50 μM, TAM 100 μM) | retinal / photoreceptor morphology by OCT imaging (Abca4−/−Rdh8−/− mice; listed as TAM) |
| --- | --- | --- | --- | --- | --- | --- | --- | --- | --- | --- | --- | --- |
| COc1cc2nc(N3CCN(C(=O)C4COc5ccccc5O4)CC3)nc(N)c2cc1OC.CS(=O)(=O)O (stereo not shown) [Doxazosin] | partial agonistic effect | 0% of mice | 100% of mice | substantial protection on photoreceptor morphology; also recorded: dose-dependent fashion | 0.4 | full antagonist |  |  |  |  |  |  |
| COCCc1ccc(OCC(O)CNC(C)C)cc1 (stereo not shown) [MTP, metoprolol tartrate] | no agonistic or antagonistic effects | 25% of mice | 41.7% of mice |  |  | no agonistic or antagonistic effects | no agonistic or antagonistic effects | Complete retinal protection | 25 | dose-dependent retinal protection | no agonistic or antagonistic effects |  |
| CCOc1ccccc1OCCN[C@H](C)Cc1ccc(OC)c(S(N)(=O)=O)c1.Cl [Tamsulosin] | partial agonistic effect | 16.7% of mice | 58.3% of mice |  |  | antagonistic activity |  | Complete retinal protection | 17 |  |  | substantial protection on photoreceptor morphology; also recorded: dose-dependent retinal protection |
